Each structure is given as a SMILES string. Entries after “also recorded” stand apart in the source; their conditions may differ.

The text below walks through data of US20260097111A1, “ETHER LIPIDS FOR HYPERACTIVATION OF MAMMALIAN DENDRITIC CELLS” (priority 2022, published 2026).

The subject of one data set is FLT3L-DCs. Description: Migration of injected FLT3L-DCs to skin draining lymph nodes. Particulars: DCs stimulated with R848 1 μg/mL and 41 uM lipid, injected SC, 24 hours; FIG. 5; listed as DGP. The format is in vivo, mice. How it is done: Murine bone marrow-derived FLT3L-DCs hyperactivation for migration assays. BMDCs were harvested on day 8 post differentiation, washed with PBS, and re-plated in FLT3L-containing I10 at a concentration of 1×10^6 cells/mL. For DC hyperactivation, 500 μl of R848 was added at a final concentration of 1 μg/mL, and 500 μl of lipids (DGPC (Compound 1), DGP (Compound 2), DHC (Compound 7) or DHMC (Compound 8) or 22:0 lyso PC) prepared in 4% KP407 was diluted to a final concentration of 41 uM. Cells were incubated for 24 hours at 37° C. on a tube rotator. Twenty-four hours post-stimulation, cells were washed with PBS and stained with CFSE (1:1000) for 30 min at 37° C. in the dark. DCs were then counted and 1.10×10^6 cells were injected subcutaneously (SC) in 100 ul per mouse. 24 hours post-injection, the skin draining lymph nodes (dLN) were dissected. A single cell suspension was prepared, and cells were stained in PBS with Live Dead Fixable dye (ThermoFisher) for 20 min at 4° C. Cells were then washed again and stained for 20 min at 4° C. in MACS buffer (PBS with 1% FCS and 2 mM EDTA) containing the following fluorescently conjugated antibodies: anti-CD11c and anti-I-A/I-E (MHC-II). […] Data were analyzed using FlowJo software (Tree Star). […]

The nature of data set [1]: DGP DP sizing (Malvern Mastersizer 3000). The format is physicochemical. How it is done: DGP (Compound 2) DP Synthesis. DGP DP was synthesized at a 3 mL scale using the following procedure. […] Sterile 10×PBS was added to the solution resulting in a 1×PBS concentration and 4 mg/mL DGP DP concentration. The mixture was then stirred at 1000 rpm for another 30 min at RT. For DGP DP prepared at 12 or 18 mL scale, the same procedure was followed, with volumes, vials, and stir bars scaled up to achieve the 4 mg/mL DGP DP preparation.
In cases where DGP DS was micronized prior to use, DGP DS underwent jet milling using an M-50 (Microtech Engineering Company) to reduce DS size to an average of 3-5 μm. […] For in vitro studies, DGP DP samples were sonicated at 2 W (low energy) or 4 W (medium energy) over two 30 s intervals. For in vivo studies, DGP DP samples were sonicated at 3 W over two 30 s intervals as a mid-energy assessment.
DGP (Compound 2) DP Sizing. DGP DP size was determined using a Malvern Mastersizer 3000 with a Hydro SV attachment. Briefly, DGP DP was diluted to 1 mg/mL in water prior to sizing. The 1 mg/mL DGP DP was added drop-wise to a measurement chamber filled with water under spinning until laser obscuration was 3-5%. Five measurements were taken per sample, with the average of the measurements reported.

The nature of data set [2]: Serum chemokines and cytokines after SC injection. The format is in vivo, mice. Particulars: SC injection; 2, 24 and 48 hours post injection; FIG. 49. How it is done:
Lipid Preparation. […] Lipids were used for chemical injections or DC treatment within one hour of their preparation.
Subcutaneous (SC) Injection. Mice were placed under Isoflurane for a few min for anesthesia. Tubes containing the chemicals were vortexed for 30 seconds, then loaded with a 1 mL Sub-Q syringe.
Blood Collection. Mice were placed under Isoflurane for approximately 10 min for anesthesia. Using a 21G needle, mice were gently poked through the skin to the submandibular space to induce bleeding. Five-Six drops were collected in a mini collect K2EDTA blood collection tube. Blood samples were transported back to Corner Therapeutics lab on ice. The blood was then centrifuged at 1500×g for 5 min. After centrifugation, blood was collected into a 96-well round bottom plate and stored at −80° C.
Measurement of Serum Chemokines and Cytokines. Secreted cytokines were measured in the supernatant by cytokine bead array using the LEGENDplex™ Mouse Murine Proinflammatory Chemokine, Murine Cytokine Release Syndrome Legendplex and LEGENDplex™ Mouse Cytokine Panel 2 (Biolegend) according to the manufacturer's protocol. Data were collected using a Quanteon Novocyte flow cytometer and analyzed using the cloud-based software provided by Biolegend.

Setting [3] is: 18 mL scale, no DS or DP modification.

Regarding `CCCCCCCCCCCCCCCCCCCCCCOC[C@@H](O)COP(=O)(O)O` [Compound 2, 1-docosyl-sn-glycerol-3-phosphate], the “DC migration from the skin to the dLN” value in the data set on FLT3L-DCs is recorded as “significantly enhanced DC migration from the skin to the dLN; also recorded: migration activity was significantly higher than DGPC (Compound 1)”. In data set [1] (3 mL scale), the “Particulate Size D10” value came out at 6.83 μm, the “Particulate Size D50” value is recorded as 13.8 μm and the “Particulate Size D90” value worked out at 27.5 μm. In data set [1] (12 mL scale), the “Particulate Size D10” value was 12.0 μm, the “Particulate Size D50” value is recorded as 25.0 μm and the “Particulate Size D90” value turned out to be 51.7 μm. Further, in data set [1] (12 or 18 mL scale), the average size is 26-27 μm. In data set [1] (setting [3]), the “Particulate Size D10” value came to 12.9 μm, the “Particulate Size D50” value turned out to be 26.7 μm and the “Particulate Size D90” value stood at 56.0 μm. Further, in data set [2], the “cytokine and chemokine release in the serum” value is listed as “unable to induce any cytokine or chemokine release in the serum at any timepoint”.
